{"source": "patent US20240025880A1", "about": "(CHIESI FARMACEUTICI S.P.A., priority 2020, published 2024)", "data": [{"biological_target": "T1, h P2X3 (Homo sapiens, UniProt P56373)", "T1 sequence (P56373 1-397)": "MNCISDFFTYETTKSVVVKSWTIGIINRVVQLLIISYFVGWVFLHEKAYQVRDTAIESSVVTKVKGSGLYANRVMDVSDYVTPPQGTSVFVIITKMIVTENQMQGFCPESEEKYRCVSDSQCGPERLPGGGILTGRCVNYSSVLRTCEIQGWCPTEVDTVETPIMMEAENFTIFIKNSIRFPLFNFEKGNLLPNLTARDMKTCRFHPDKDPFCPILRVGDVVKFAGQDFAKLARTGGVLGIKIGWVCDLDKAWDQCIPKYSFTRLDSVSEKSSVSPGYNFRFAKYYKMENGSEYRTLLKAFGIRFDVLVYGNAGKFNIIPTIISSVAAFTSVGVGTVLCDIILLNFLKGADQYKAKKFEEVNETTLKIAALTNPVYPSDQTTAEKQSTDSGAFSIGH", "experiment": "In vitro electrophysiology assay for P2X3 (automated whole-cell patch clamp, α,β-MeATP agonist)", "assay_type": "cell-based", "conditions": "Table 2; 800 nM α,β-MeATP, peak current; read-out: h P2X3 (pIC50 range of activity) (converted)", "procedure": "In Vitro Electrophysiology Assay for P2X3\nCells expressing P2X3 receptors were grown according to standard practice and maintained at 37° C. in a 5% humidified CO2 atmosphere. The cells were seeded into T175 flask 2 days prior to the day of the assay and dissociated from the flasks using TrypLE when grown to confluence of 80-90%. The dissociated cells were resuspended in serum free media at a cell density of 3×10^6 cells/ml and loaded onto the Sophion Qube automated patch-clamp system. The extracellular assay buffer contained 145 mM NaCl, 4 mM KCl, 2 mM CaCl2, 1 mM MgCl2, 10 mM HEPES, and 10 mM glucose at pH 7.4. The intracellular assay solution contained 140 mM CsF, 10 mM NaCl, 10 mM EGTA, 10 mM HEPES at pH 7.2. Agonist stock solutions were prepared in H2O and diluted in bath solution prior to use. All antagonists were prepared as 10 mM stock solutions in DMSO and diluted in bath solution prior to use. All experiments were performed under the whole-cell patch clamp configuration at room temperature with 384 individual cells being voltage clamped at −60 mV simultaneously on the Sophion Qube instrument. Two baseline responses were established with the application of α,β-MeATP (800 nM), with the subsequent agonist applications being washed out using extracellular assay buffer containing 0.5 U/ml apyrase. Following the second agonist application, antagonist was incubated in the absence of α,β-MeATP for 10 minutes. After antagonist preincubation, 800 nM α,β-MeATP and antagonist were co-administered to determine the inhibitory effect of the antagonist. One concentration of an antagonist was assessed against a single cell, with different concentrations of the antagonist applied to other cells on the 384 recording substrate. The control P2X3 current amplitude was taken from the peak current amplitude from the second agonist response prior to preincubation with antagonist. The peak P2X3 current amplitude in the presence of antagonist was used to calculate the inhibitory effect at each concentration of the antagonist according to the following equation:\nPercentage inhibition of P2X3=(P2X3 control peak amplitude−P2X3 antagonist peak amplitude)/P2X3 control peak amplitude)*100\nConcentration-response curves were constructed from ten different concentrations with each concentration of antagonist tested on at least two individual cells. The concentration of the antagonist to inhibit P2X3 current by 50% (IC50) was determined by fitting the data with the following equation:\nY=a+[(b−a)/(1+10^((log c−x)d)]\nWhere ‘a’ is minimum response, ‘b’ is maximum response, ‘c’ is IC50 and ‘d’ is Hill slope.", "units": {"IC50": "nM"}, "values": [{"smiles": "Cc1nnc(C(C)Nc2ncnc3c(S(=O)(=O)N4CCOCC4)cc(-c4ccc(F)cc4)cc23)s1", "note": "(racemic) [Example 12, (Rac)-6-(4-fluorophenyl)-N-(1-(5-methyl-1,3,4-thiadiazol-2-yl)ethyl)-8-(morpholinosulfonyl)quinazolin-4-amine]", "IC50": "< 316"}, {"smiles": "Cc1nnc(C(C)Nc2ncnc3c(OCC(F)F)cc(-c4ccc(F)cn4)cc23)s1", "note": "(single isomer, unassigned; enantiomer 2) [Example 7, Single enantiomer 2 of 8-(2,2-difluoroethoxy)-6-(5-fluoro-2-pyridyl)-N-[1-(5-methyl-1,3,4-thiadiazol-2-yl)ethyl]quinazolin-4-amine]", "IC50": "3160 to 31600"}, {"smiles": "Cc1ccc(CNc2ncnc3c(OCC(F)F)cc(-c4ccc(F)cn4)cc23)nn1", "note": "[Example 4, 8-(2,2-difluoroethoxy)-6-(5-fluoropyridin-2-yl)-N-((6-methylpyridazin-3-yl)methyl)quinazolin-4-amine]", "IC50": "316 to 3160"}, {"smiles": "Cc1ccc([C@@H](C)Nc2ncnc3c(OCC(F)F)cc(-c4ccc(F)cn4)cc23)nn1", "note": "[Example 5, (R)-8-(2,2-difluoroethoxy)-6-(5-fluoropyridin-2-yl)-N-(1-(6-methylpyridazin-3-yl)ethyl)quinazolin-4-amine]", "IC50": "316 to 3160"}, {"smiles": "Cc1ccc(-c2cc(OCC(F)F)c3ncnc(NCc4ccc(C)nn4)c3c2)nc1", "note": "[Example 8, 8-(2,2-Difluoroethoxy)-N-((6-methylpyridazin-3-yl)methyl)-6-(5-methylpyridin-2-yl) quinazolin-4-amine]", "IC50": "< 316"}, {"smiles": "Cc1ccc([C@@H](C)Nc2ncnc3c(S(=O)(=O)N4CCOCC4)cc(-c4ccc(F)cc4)cc23)nn1", "note": "[Example 10, (R)-6-(4-fluorophenyl)-N-(1-(6-methylpyridazin-3-yl)ethyl)-8-(morpholinosulfonyl)quinazolin-4-amine]", "IC50": "316 to 3160"}, {"smiles": "C[C@@H](Nc1ncnc2c(S(=O)(=O)N3CCOCC3)cc(-c3ccc(F)cc3)cc12)c1cnc(C(F)(F)F)nc1", "note": "[Example 11]", "IC50": "< 316"}, {"smiles": "Cc1ccc([C@@H](C)Nc2ncnc3c(S(=O)(=O)N(C)C)cc(-c4ccc(F)cc4)cc23)nn1", "note": "[Example 13, (R)-6-(4-fluorophenyl)-N,N-dimethyl-4-((1-(6-methylpyridazin-3-yl)ethyl)amino)quinazoline-8-sulfonamide]", "IC50": "< 316"}, {"smiles": "Cc1nnc(C(C)Nc2ncnc3c(S(=O)(=O)N(C)C)cc(-c4ccc(F)cc4)cc23)s1", "note": "(stereo not drawn) [Example 14, 6-(4-fluorophenyl)-N,N-dimethyl-4-((1-(5-methyl-1,3,4-thiadiazol-2-yl)ethyl)amino)quinazoline-8-sulfonamide]", "IC50": "< 316"}, {"smiles": "Cc1nnc(C(C)Nc2ncnc3c(S(=O)(=O)N4CCC(F)(F)C4)cc(-c4ccc(F)cc4)cc23)s1", "note": "(stereo not drawn) [Example 18, 8-((3,3-difluoropyrrolidin-1-yl)sulfonyl)-6-(4-fluorophenyl)-N-(1-(5-methyl-1,3,4-thiadiazol-2-yl)ethyl)quinazolin-4-amine]", "IC50": "316 to 3160"}, {"smiles": "Cc1ccc([C@@H](C)Nc2ncnc3c(S(=O)(=O)N4CCC(O)CC4)cc(-c4ccc(F)cc4)cc23)nn1", "note": "[Example 19, (R)-1-((6-(4-fluorophenyl)-4-((1-(6-methylpyridazin-3-yl)ethyl)amino)quinazolin-8-yl)sulfonyl)piperidin-4-ol]", "IC50": "316 to 3160"}, {"smiles": "Cc1nc([C@@H](C)Nc2ncnc3c(S(=O)(=O)N4CCC(O)CC4)cc(-c4ccc(F)cc4)cc23)no1", "note": "[Example 20, (R)-1-((6-(4-fluorophenyl)-4-((1-(5-methyl-1,2,4-oxadiazol-3-yl)ethyl)amino)quinazolin-8-yl)sulfonyl)piperidin-4-ol]", "IC50": "< 316"}, {"smiles": "CNS(=O)(=O)c1cc(-c2ccc(F)cc2)cc2c(NC(C)c3nnc(C)s3)ncnc12", "note": "(stereo not drawn) [Example 23]", "IC50": "316 to 3160"}, {"smiles": "Cc1ccc([C@@H](C)Nc2ncnc3c(S(=O)(=O)N4CCNCC4)cc(-c4ccc(F)cc4)cc23)nn1", "note": "[Example 24, (R)-6-(4-fluorophenyl)-N-(1-(6-methylpyridazin-3-yl)ethyl)-8-(piperazin-1-ylsulfonyl)quinazolin-4-amine]", "IC50": "316 to 3160"}, {"smiles": "Cc1nc([C@@H](C)Nc2ncnc3c(S(=O)(=O)N4CCNCC4)cc(-c4ccc(F)cc4)cc23)no1", "note": "[Example 25, (R)-6-(4-fluorophenyl)-N-(1-(5-methyl-1,2,4-oxadiazol-3-yl)ethyl)-8-(piperazin-1-ylsulfonyl)quinazolin-4-amine]", "IC50": "316 to 3160"}, {"smiles": "CSc1cc(-c2ccc(F)cc2)cc2c(N[C@H](C)c3ccc(C)nn3)ncnc12", "note": "[Example 26, (R)-6-(4-fluorophenyl)-N-(1-(6-methylpyridazin-3-yl)ethyl)-8-(methylthio)quinazolin-4-amine]", "IC50": "316 to 3160"}, {"smiles": "Cc1ccc([C@@H](C)Nc2ncnc3c(SC4COC4)cc(-c4ccc(F)cc4)cc23)nn1", "note": "[Example 28, (R)-6-(4-fluorophenyl)-N-(1-(6-methylpyridazin-3-yl)ethyl)-8-(oxetan-3-ylthio)quinazolin-4-amine]", "IC50": "3160 to 31600"}, {"smiles": "Cc1ccc([C@@H](C)Nc2ncnc3c([S+]([O-])C4COC4)cc(-c4ccc(F)cc4)cc23)nn1", "note": "(stereo partly drawn) [Example 29, 6-(4-fluorophenyl)-N-((R)-1-(6-methylpyridazin-3-yl)ethyl)-8-(oxetan-3-ylsulfinyl)quinazolin-4-amine]", "IC50": "3160 to 31600"}, {"smiles": "CC(=O)N1CC[C@@H](Oc2cc(-c3ccc(F)cc3)cc3c(N[C@H](C)c4cnc(C(F)(F)F)nc4)ncnc23)C1", "note": "[Example 30]", "IC50": "316 to 3160"}, {"smiles": "CC(=O)N1CC[C@H](Oc2cc(-c3ccc(F)cc3)cc3c(N[C@H](C)c4cnc(C(F)(F)F)nc4)ncnc23)C1", "note": "[Example 31]", "IC50": "316 to 3160"}, {"smiles": "CC(=O)N[C@H]1CC[C@@H](Oc2cc(-c3ccc(F)cc3)cc3c(N[C@H](C)c4cnc(C(F)(F)F)nc4)ncnc23)CC1", "note": "[Example 32, N-((1S,4s)-4-((6-(4-fluorophenyl)-4-(((R)-1-(2-(trifluoromethyl)pyrimidin-5-yl)ethyl)amino)quinazolin-8-yl)oxy)cyclohexyl)acetamide]", "IC50": "316 to 3160"}, {"smiles": "C[C@@H](Nc1ncnc2c(OC3CCN(CC(F)(F)F)C3)cc(-c3ccc(F)cc3)cc12)c1cnc(C(F)(F)F)nc1", "note": "(stereo partly drawn) [Example 33, 6-(4-fluorophenyl)-8-((1-(2,2,2-trifluoroethyl)pyrrolidin-3-yl)oxy)-N-((R)-1-(2-(trifluoromethyl)pyrimidin-5-yl)ethyl)quinazolin-4-amine]", "IC50": "316 to 3160"}, {"smiles": "CC(=O)N1CCC(Oc2cc(-c3ccc(F)cc3)cc3c(N[C@H](C)c4cnc(C(F)(F)F)nc4)ncnc23)CC1", "note": "[Example 35, (R)-1-(4-((6-(4-fluorophenyl)-4-((1-(2-(trifluoromethyl)pyrimidin-5-yl)ethyl)amino)quinazolin-8-yl)oxy)piperidin-1-yl)ethan-1-one]", "IC50": "316 to 3160"}, {"smiles": "C[C@@H](Nc1ncnc2c(OC3CCN(CC(F)(F)F)CC3)cc(-c3ccc(F)cc3)cc12)c1cnc(C(F)(F)F)nc1", "note": "[Example 36]", "IC50": "316 to 3160"}, {"smiles": "C[C@@H](Nc1ncnc2c(OCC3(O)COC3)cc(-c3ccc(F)cc3)cc12)c1cnc(C(F)(F)F)nc1", "note": "[Example 37, (R)-3-(((6-(4-fluorophenyl)-4-((1-(2-(trifluoromethyl)pyrimidin-5-yl)ethyl)amino)quinazolin-8-yl)oxy)methyl)oxetan-3-ol]", "IC50": "< 316"}, {"smiles": "C[C@@H](Nc1ncnc2c(OCc3cc(O)no3)cc(-c3ccc(F)cc3)cc12)c1cnc(C(F)(F)F)nc1", "note": "[Example 38, (R)-5-(((6-(4-fluorophenyl)-4-((1-(2-(trifluoromethyl)pyrimidin-5-yl)ethyl)amino)quinazolin-8-yl)oxy)methyl)isoxazol-3-ol]", "IC50": "< 316"}, {"smiles": "C[C@@H](Nc1ncnc2c(OCC(=O)O)cc(-c3ccc(F)cc3)cc12)c1cnc(C(F)(F)F)nc1", "note": "[Example 39, (R)-2-((6-(4-fluorophenyl)-4-((1-(2-(trifluoromethyl)pyrimidin-5-yl)ethyl)amino)quinazolin-8-yl)oxy)acetic acid]", "IC50": "< 316"}]}]}
